According to patent US8278263B2, “Method of regulating mammalian target-of-rapamycin activity by interaction between phospholipase D and raptor” (Postech Academy-Industry Foundation, priority 2006, dated 2012):

Columns and labels:
[1] = test system: phosphorylations of S6K1 and 4EBP1; assay: Phosphorylation of S6K1 and 4EBP1 after isozyme-specific PLD siRNA knockdown (western blot); type: cell-based, human; monkey
Source text: Pairs of 21-nucleotide sense and antisense RNA oligomers were synthesized and annealed by Dharmacon Research, Inc. (Lafayette, Colo.). The oligonucleotides used for PLD2 were: sense, 5′-AAGAGGUGGCUGGUGGUGAAG-3′ (SEQ ID NO: 9) and antisense, 5′-CUUCACCACCAGCCACCUCUU-3′ (SEQ ID NO: 10), which correspond to human PLD2 coding nucleotides 703-723. The oligonucleotides used for PLD1 were: sense, 5′-AAGGUGGGACGACAAUGAGCA-3′ (SEQ ID NO: 11), and antisense, 5′-UGCUCAUUGUCGUCCCACCUU-3′ (SEQ ID NO: 12), which correspond to human PLD1a coding nucleotides 1455-1475. All siRNA sequences were subjected to BLAST in the NCBI database and complete matches were only found for PLD2 sequences. Luciferase GL2 duplex was purchased from Dharmacon Research, Inc. and was used as a negative control. For add-back experiment for PLD2 silencing, three residues of human PLD2 cDNA (nucleotides 703-723 of PLD2; […]; SEQ ID NO: 13) are substituted to […] for addback mutants of PLD2^wt (Kim, J. H., Kim, J. H., Ohba, M., Suh, P. G., Ryu, S. H. Mol. Cell. Biol. 25 (2005) 3194, which is hereby incorporated by reference). This mutation is silencing mutations. This gene is subcloned into mammalian expression vector pcDNA3.1 (Invitrogen) and digested with restriction enzymes KpnI and XbaI. These mutations are confirmed through nucleotide sequence analysis. […]

phosphorylation of S6K1 = assay: Mitogen-dependent phosphorylation of S6K1 in siRNA-transfected COS7 cells; type: cell-based, monkey; details: siRNA knockdown, 20% BCS
Protocol: The indicated siRNAs were transfected into COS7 cells, and 36 hrs later, cells were deprived of serum for 24 hrs. 20% of BCS was then treated and the resulting lysates were subjected to SDS-PAGE.

mTOR-raptor interaction = assay: Co-IP analysis of the mTOR-raptor interaction; type: cell-based, monkey; details: COS7 cells
S6K1 phosphorylation = assay: Exogenous PA rescue of mTOR signaling in PLD knocked-down cells (SDS-PAGE/western blot); type: cell-based, human; monkey
Protocol: Next, another experiment was conducted to test whether exogenous PA can rescue mTOR signal abrogation in PLD2-knocked-down cells. HEK293 and COS7 cells were transfected with the indicated siRNAs using lipofectamine. After 36 hrs, cells were deprived of serum for 24 hrs. 100 μM of C-6 PA solubilized in DW was then treated for 30 min. Resulting lysates were subject to SDS-PAGE.
The inventor reasoned that if the role of PLD2 in mTOR activation is solely that of PA generation, then the exogenous addition of PA should completely rescue mTOR signaling despite PLD2 expression.

PLD2 = target: T1, PLD2 (Homo sapiens, UniProt O14939); assay: In vivo PLD assay (PBt formation) in response to nutrient levels; type: cell-based; details: PLD2wt transfected cells; leucine-free vs leucine-added media; 0.4% 1-butanol
T1 construct: showing a schematic view of PLD2 N-terminal deleted fragments versus whole PLD2; expressed in transfected cells
T1 sequence (O14939 whole entry R172C/T577I, the tested form may be a part): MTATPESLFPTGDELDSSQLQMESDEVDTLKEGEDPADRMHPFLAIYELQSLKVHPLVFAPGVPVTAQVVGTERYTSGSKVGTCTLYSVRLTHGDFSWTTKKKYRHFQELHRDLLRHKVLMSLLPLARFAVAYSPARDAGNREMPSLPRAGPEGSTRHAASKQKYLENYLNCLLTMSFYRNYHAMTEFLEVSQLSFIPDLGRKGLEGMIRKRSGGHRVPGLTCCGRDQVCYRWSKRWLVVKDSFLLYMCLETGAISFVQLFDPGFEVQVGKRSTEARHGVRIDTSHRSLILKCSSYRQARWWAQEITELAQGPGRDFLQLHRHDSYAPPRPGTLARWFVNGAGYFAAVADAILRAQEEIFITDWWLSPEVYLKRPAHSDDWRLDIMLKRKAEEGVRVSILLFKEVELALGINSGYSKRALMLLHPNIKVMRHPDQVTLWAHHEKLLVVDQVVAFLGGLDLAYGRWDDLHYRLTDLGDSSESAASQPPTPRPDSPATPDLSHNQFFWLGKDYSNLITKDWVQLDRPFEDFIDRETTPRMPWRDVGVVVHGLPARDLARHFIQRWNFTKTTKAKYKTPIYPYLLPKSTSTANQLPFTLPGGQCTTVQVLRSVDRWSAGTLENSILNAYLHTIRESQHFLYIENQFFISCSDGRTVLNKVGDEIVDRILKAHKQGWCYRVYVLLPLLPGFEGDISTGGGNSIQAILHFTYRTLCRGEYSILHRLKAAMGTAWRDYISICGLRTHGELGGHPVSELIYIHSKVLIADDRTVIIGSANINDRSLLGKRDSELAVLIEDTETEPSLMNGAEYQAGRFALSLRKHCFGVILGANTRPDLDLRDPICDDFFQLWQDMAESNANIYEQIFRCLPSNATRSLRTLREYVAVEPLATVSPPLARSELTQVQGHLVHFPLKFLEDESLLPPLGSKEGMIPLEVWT
Protocol: In vivo PLD activity was assayed by measuring the formation of phosphatidyl-butanol as described in “Lee, J. S., Kim, J. H., Jang, I. H., Kim, H. S., Han, J. M., Kazlauskas, A., Yagaisawa, H., Suh, P. G., Ryu, S. H. J. Cell Sci. 118 (2005) 4405,” which is hereby incorporated by reference. In brief, cells were loaded with [^3H]myristic acid (2 μCi/ml) for 8 hrs and then washed twice with DMEM. Labeled cells were incubated with 0.4% butanol for 10 min to measure basal PLD activity. Total lipids were extracted with 1.2 ml of methanol:1 M NaCl:chloroform (1:1:1 by volume) and then separated by thin-layer chromatography on silica gel plates. The amount of [^3H]phosphatidyl-butanol formed was expressed as a percentage of total [^3H]lipid to account for cell labeling efficiency differences.

[2] = test system: binding between PLD2 and raptor; assay: Co-IP of HA-raptor/PLD2 in HEK293 cells after leucine treatment; type: cell-based, human; details: HA-raptorwt/PLD2wt transfected HEK293 cells; leucine treatment after leucine deprivation
Protocol: (§1) After harvesting COS7 cells, total extracts were prepared by brief sonication in ice-cold lysis buffer (40 mM HEPES pH7.5, 120 mM NaCl, 1 mM EDTA, 10 mM pyrophosphate, 10 mM glycerophosphate, 50 mM NaF, 1.5 mM Na3VO4, 0.5% CHAPS, 1 mM PMSF, protease inhibitor cocktails). Clarified extracts were mixed with 2 μg of the respective antibodies. Then protein A-Sepharose beads were added to isolate the antibody complex. After four washings with lysis buffer, the final immunoprecipitates were washed once with wash buffer (50 mM HEPES pH7.5, 150 mM NaCl), and then subjected to SDS-PAGE using Hyperfilm (Amersham Pharmacia Biotech), nitrocellulose membranes (Watmann), Power supply (Amersham Pharmacia Biotech), Electrophoretic Transfer unit (Hoefer Scientific Instruments), and ECL™ (Amersham Pharmacia Biotech).
Either HA-raptor^wt/PLD2^wt was transfected into HEK293 cells, and the cells were subjected to leucine deprivation. Co-IP after leucine treatment was followed by Western blot analysis. Importantly, the interaction between Rheb and PLD2 was also regulated by nutrient levels such that this interaction was stabilized under high nutrient conditions and weakened under low nutrient conditions, which allowed a nutrient-dependent mTOR complex composed of mTOR, raptor, PLD2, and Rheb to be identified.

[3] = test system: interaction between PLD2 and mTOR; assay: Co-IP with anti-mTOR antibody of PLD2 and mTOR complex; type: cell-based, human; monkey
Protocol: as §1

S6K1 = test system: S6K1
Protocol: Until now, the function of PLD2 in nutrient signaling has not been proposed. To this end, the importance of PLD2 in nutrient signaling was tested. […] PLD2^wt was transfected and allowed to express for 24 hr.

PLD1 siRNA: 21-nt siRNA duplex SEQ ID NO: 11/12, human PLD1a coding nucleotides 1455-1475 (chain 1 AAGGUGGGACGACAAUGAGCA; chain 2 UGCUCAUUGUCGUCCCACCUU; RNA, backbone not given here)
silencing effect on mTOR signaling ([1]; siRNA silencing): modest | mitogen-dependent phosphorylation of S6K1 (phosphorylation of S6K1): only a modest effect

CCCCCC(=O)OC[C@H](COP(=O)(O)O)OC(=O)CCCCC [PA, C-6 phosphatidic acid]
modulation of the mTOR-raptor interaction (mTOR-raptor interaction): neither reducing PA generation with 1-butanol nor adding PA modulates | rescue of silencing effect of PLD1 on mTOR signaling (S6K1 phosphorylation; PLD1 silencing, PA treatment): completely rescued | S6K1 phosphorylation triggered by exogenous PA (S6K1 phosphorylation; PLD2-knocked-down HEK293 and COS7 cells, 100 μM C-6 PA, 30 min): could not trigger S6K1 phosphorylation | rescue of PLD2 effect on mTOR signaling (S6K1 phosphorylation; PLD2 silencing, exogenous PA treatment): not rescued

PLD2 siRNA: 21-nt siRNA duplex SEQ ID NO: 9/10, human PLD2 coding nucleotides 703-723 (chain 1 AAGAGGUGGCUGGUGGUGAAG; chain 2 CUUCACCACCAGCCACCUCUU; RNA, backbone not given here)
phosphorylations of S6K1 and 4EBP1 ([1]; siRNA knockdown, HEK293, OVCAR-3 and COS7 cells, serum-deprived 24 hrs, compared with PLD1 knockdown): dramatically reduced | mitogen-dependent phosphorylation of S6K1 (phosphorylation of S6K1): profoundly reduced

CC(C)C[C@H](N)C(=O)O [leucine]
PLD2 activity (PBt formation) (PLD2): reversibly regulated | binding between PLD2 and raptor [2]: enhanced binding | interaction between endogenous PLD2 and endogenous mTOR complex ([3]; leucine treatment in leucine-deprived COS7 and HEK293 cells): increased

CO[C@H]1C[C@@H]2CC[C@@H](C)[C@@](O)(O2)C(=O)C(=O)N2CCCC[C@H]2C(=O)O[C@H]([C@H](C)C[C@@H]2CC[C@@H](O)[C@H](OC)C2)CC(=O)[C@H](C)/C=C(\C)[C@@H](O)[C@@H](OC)C(=O)[C@H](C)C[C@H](C)/C=C/C=C/C=C/1C [rapamycin]
effect on the interaction between PLD2 and mTOR ([3]; mTOR inhibition by rapamycin): no effect

1-butanol
stimulatory effect of leucine on S6K1 (S6K1): significantly reduced | modulation of the mTOR-raptor interaction (mTOR-raptor interaction): neither reducing PA generation with 1-butanol nor adding PA modulates
